# According to PubChem BioAssay AID1918991 (Molecular Pharmacology Branch, DTP, NCI, 2023):
# pIC50: −log10 of the molar value.
# Test system: 186277-243-T-J2-PDC complex spheroid growth
# Experiment: Anticancer human tumor 186277-243-T-J2-PDC patient-derived colon adenocarcinoma cell line growth inhibition [AhR]
# Conditions: for pIC50: curve of first compound; for viability, T/C: stronger effect = lower value
# Description: Multicellular complex tumor spheroid response to aryl hydrocarbon receptor antagonists in combination with a variety of drugs and investigational agents in selected tumor cell lines
# The current study was undertaken to assess response to aryl hydrocarbon receptor antagonists in combination with standard-of-care drugs and investigational agents in solid tumor complex spheroid models. Complex spheroids include a stromal component modeled by human endothelial cells (HUVEC) and fibroblasts modeled by human mesenchymal stem cells (MSCs). The concentration ranges selected for each drug and investigational agent were based upon clinically achievable concentrations if the clinical Cmax of the agent was known.
# Compounds. The drugs and investigational agents: BAY 2416964 (NSC825713), GNF351 (NSC835774), CH-223191 (NSC835775), CPI-455 (NSC825282), aza-TdCyd (NSC777586), decitabine (NSC127716), belinostat (NSC758774), entinostat (NSC756642), pevonedistat (NSC761192), tazemetostat (NSC777109), talazoparib (NSC765396), olaparib (NSC753686), selinexor (NSC780203), nedisertib (M3814, NSC802822), bortezomib (NSC756655), venetoclax (NSC766270), doxorubicin (NSC123127), elimusertib (BAY189344, NSC800525), ceralasertib (AZD6738, NSC777638), TAK-243 (NSC785004), alisertib (NSC759677), etoposide (NSC141540), topotecan (NSC609699), eribulin (NSC707389), gemcitabine (NSC613327), carboplatin (NSC241240), cisplatin (NSC119875), and SN-38 (NSC673596) were obtained from the National Cancer Institute (NCI) Developmental Therapeutics Program Chemical Repository (32). The FDA-approved anticancer drug set is available from the Developmental Therapeutics Program at https://dtp.cancer.gov/organization/dscb/obtaining/available plates.htm. […] The stock solutions were prepared in dimethyl sulfoxide (DMSO, Sigma-Aldrich, St. Louis, MO, cat. D2650), except for the platinum compounds which were prepared in saline (Quality Biological, Gaithersburg, MD, cat. 114-055-101), at 800-fold the tested concentration and stored at -70 degrees C prior to their use. All drugs and investigational agents were tested over a range starting from a high concentration at or near the clinical Cmax and decreasing in half-log increments. If the clinical Cmax for an agent had not been determined, the highest concentration tested was 10 microM (Table 1).
# Cell Culture. All cells were maintained in an incubator at 37 degrees C and 5% CO2 with 95% humidity. The PDC lines were cultured according to standard operating procedures established by the NCI PDMR (https://pdmr.cancer.gov). Briefly, all PDCs were thawed and cultured in Matrigel-coated flasks prepared with a working solution of 1X Ham's F-12 nutrient mix, without supplementation (Invitrogen, Waltham, MA, cat. 11765054), 100 U/mL penicillin-streptomycin (Invitrogen, cat. 15140122), and 2.5% Matrigel (Corning Inc., Corning, NY, cat. 354248) for the first three passages. All PDCs were cultured in complete DMEM/F-12 media containing advanced DMEM/F-12 (Invitrogen, cat. 12634028), 4.9% defined fetal bovine serum, heat inactivated (HyClone Laboratories Inc., Logan, UT, cat. SH30070.03HI), 389 ng/mL hydrocortisone (Sigma-Aldrich, cat. H4001), 9.7 ng/mL human EGF recombinant protein (Invitrogen, cat. PHG0313), 23.4 microg/mL adenine (Sigma-Aldrich, cat. A2786), 97.3 U/mL penicillin-streptomycin (Invitrogen, cat. 15140122), 1.9 mM L-glutamine (Invitrogen, cat. 25030081), and 9.7 microM Y-27632 dihydrochloride (Tocris Bioscience, Bristol, United Kingdom, cat. 1254). The PDCs were cultured in complete DMEM/F12 media without 10 microM Y-27632 dihydrochloride for at least two passages prior to the screen. The established cell lines NCI-H1341 and […] were cultured in DMEM/F-12, HEPES (Invitrogen, cat. 11330032), 5% defined fetal bovine serum (HyClone Laboratories Inc., cat. SH30070.03), ITS premix universal culture supplement [insulin (5 microg/mL), transferrin (5 microg/mL), and selenious acid (5 ng/mL)] […]
# [1] = second compound 0.1 µM, first compound 0.0316 µM
# [2] = second compound 0.1 µM, first compound 0.1 µM
# [3] = second compound 0.1 µM, first compound 0.316 µM
# [4] = second compound 0.1 µM, first compound 1 µM
# [5] = second compound 0.1 µM, first compound 3.16 µM
# [6] = second compound 0.1 µM, first compound 10 µM
# [7] = second compound 0.316 µM, first compound 0.0316 µM
# [8] = second compound 0.316 µM, first compound 0.1 µM
# [9] = second compound 0.316 µM, first compound 0.316 µM
# [10] = second compound 0.316 µM, first compound 1 µM
# [11] = second compound 0.316 µM, first compound 3.16 µM
# [12] = second compound 0.316 µM, first compound 10 µM
# [13] = second compound 1 µM, first compound 0.0316 µM
# [14] = second compound 1 µM, first compound 0.1 µM
# [15] = second compound 1 µM, first compound 0.316 µM
# [16] = second compound 1 µM, first compound 1 µM
# [17] = second compound 1 µM, first compound 3.16 µM
# [18] = second compound 1 µM, first compound 10 µM
# [19] = second compound 3.16 µM, first compound 0.0316 µM
# [20] = second compound 3.16 µM, first compound 0.1 µM
# [21] = second compound 3.16 µM, first compound 0.316 µM
# [22] = second compound 3.16 µM, first compound 1 µM
# [23] = second compound 3.16 µM, first compound 3.16 µM
# [24] = second compound 3.16 µM, first compound 10 µM
# [25] = second compound 10 µM, first compound 0.0316 µM
# [26] = second compound 10 µM, first compound 0.1 µM
# [27] = second compound 10 µM, first compound 0.316 µM
# [28] = second compound 10 µM, first compound 1 µM
# [29] = second compound 10 µM, first compound 3.16 µM
# [30] = second compound 10 µM, first compound 10 µM
# 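Note: spheroids exposed to compounds for seven days before the viability read.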
# 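Throughout, for viability, T/C: luminescent signal used as a stand-in for viable cell amount; 100% = DMSO vehicle control wells.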
structure (smiles),measurement,setting,value
CC(C)CC(NC(=O)C(Cc1ccccc1)NC(=O)c1cnccn1)B(O)O (stereo not given) + CC(CO)NC(=O)c1cc(-c2ccc(Cl)cc2)nn(-c2cnn(C)c2)c1=O,pIC50,second compound 0.1 µM,8.23
same,pIC50,second compound 0.316 µM,8.23
same,pIC50,second compound 1 µM,8.22
same,pIC50,second compound 3.16 µM,8.23
same,pIC50,second compound 10 µM,8.27
same,"viability, T/C","second compound 0.1 µM, first compound 0.000949 µM",117%
same,"viability, T/C","second compound 0.1 µM, first compound 0.003 µM",120%
same,"viability, T/C","second compound 0.1 µM, first compound 0.00949 µM",3.22%
same,"viability, T/C","second compound 0.1 µM, first compound 0.03 µM",0.06%
same,"viability, T/C","second compound 0.1 µM, first compound 0.0949 µM",0.07%
same,"viability, T/C","second compound 0.1 µM, first compound 0.3 µM",0.11%
same,"viability, T/C","second compound 0.316 µM, first compound 0.000949 µM",121%
same,"viability, T/C","second compound 0.316 µM, first compound 0.003 µM",117%
same,"viability, T/C","second compound 0.316 µM, first compound 0.00949 µM",3.12%
same,"viability, T/C","second compound 0.316 µM, first compound 0.03 µM",0.03%
same,"viability, T/C","second compound 0.316 µM, first compound 0.0949 µM",0.05%
same,"viability, T/C","second compound 0.316 µM, first compound 0.3 µM",0.11%
same,"viability, T/C","second compound 1 µM, first compound 0.000949 µM",110%
same,"viability, T/C","second compound 1 µM, first compound 0.003 µM",132%
same,"viability, T/C","second compound 1 µM, first compound 0.00949 µM",4.62%
same,"viability, T/C","second compound 1 µM, first compound 0.03 µM",0.06%
same,"viability, T/C","second compound 1 µM, first compound 0.0949 µM",0.04%
same,"viability, T/C","second compound 1 µM, first compound 0.3 µM",0.11%
same,"viability, T/C","second compound 3.16 µM, first compound 0.000949 µM",114%
same,"viability, T/C","second compound 3.16 µM, first compound 0.003 µM",118%
same,"viability, T/C","second compound 3.16 µM, first compound 0.00949 µM",2.71%
same,"viability, T/C","second compound 3.16 µM, first compound 0.03 µM",0.06%
same,"viability, T/C","second compound 3.16 µM, first compound 0.0949 µM",0.05%
same,"viability, T/C","second compound 3.16 µM, first compound 0.3 µM",0.12%
same,"viability, T/C","second compound 10 µM, first compound 0.000949 µM",96.3%
same,"viability, T/C","second compound 10 µM, first compound 0.003 µM",100%
same,"viability, T/C","second compound 10 µM, first compound 0.00949 µM",2.68%
same,"viability, T/C","second compound 10 µM, first compound 0.03 µM",0.15%
same,"viability, T/C","second compound 10 µM, first compound 0.0949 µM",0.15%
same,"viability, T/C","second compound 10 µM, first compound 0.3 µM",0.23%
Nc1ccccc1NC(=O)c1ccc(CNC(=O)OCc2cccnc2)cc1 + CC(CO)NC(=O)c1cc(-c2ccc(Cl)cc2)nn(-c2cnn(C)c2)c1=O,pIC50,second compound 0.1 µM,6.25
same,pIC50,second compound 0.316 µM,6.31
same,pIC50,second compound 1 µM,6.30
same,pIC50,second compound 3.16 µM,6.35
same,pIC50,second compound 10 µM,6.68
same,"viability, T/C",[1],89%
same,"viability, T/C",[2],95.2%
same,"viability, T/C",[3],67.4%
same,"viability, T/C",[4],30.2%
same,"viability, T/C",[5],10.7%
same,"viability, T/C",[6],0.66%
same,"viability, T/C",[7],84.3%
same,"viability, T/C",[8],87.1%
same,"viability, T/C",[9],57.2%
same,"viability, T/C",[10],32.9%
same,"viability, T/C",[11],8.17%
same,"viability, T/C",[12],0.43%
same,"viability, T/C",[13],93%
same,"viability, T/C",[14],94.7%
same,"viability, T/C",[15],61.8%
same,"viability, T/C",[16],28.1%
same,"viability, T/C",[17],8.39%
same,"viability, T/C",[18],0.38%
same,"viability, T/C",[19],83.7%
same,"viability, T/C",[20],79.7%
same,"viability, T/C",[21],62.2%
same,"viability, T/C",[22],22.2%
same,"viability, T/C",[23],7.6%
same,"viability, T/C",[24],0.3%
same,"viability, T/C",[25],70.3%
same,"viability, T/C",[26],68.8%
same,"viability, T/C",[27],39.2%
same,"viability, T/C",[28],16.6%
same,"viability, T/C",[29],7.12%
same,"viability, T/C",[30],0.32%
O=C(C=Cc1cccc(S(=O)(=O)Nc2ccccc2)c1)NO + CC(CO)NC(=O)c1cc(-c2ccc(Cl)cc2)nn(-c2cnn(C)c2)c1=O,pIC50,second compound 0.1 µM,6.49
same,pIC50,second compound 0.316 µM,6.46
same,pIC50,second compound 1 µM,6.55
same,pIC50,second compound 3.16 µM,6.61
same,pIC50,second compound 10 µM,6.79
same,"viability, T/C",[1],101%
same,"viability, T/C",[2],94.5%
same,"viability, T/C",[3],50.5%
same,"viability, T/C",[4],9.56%
same,"viability, T/C",[5],1.99%
same,"viability, T/C",[6],0.31%
same,"viability, T/C",[7],92.5%
same,"viability, T/C",[8],83.8%
same,"viability, T/C",[9],54.3%
same,"viability, T/C",[10],10.1%
same,"viability, T/C",[11],2%
same,"viability, T/C",[12],0.32%
same,"viability, T/C",[13],86.1%
same,"viability, T/C",[14],80.5%
same,"viability, T/C",[15],46.7%
same,"viability, T/C",[16],10.7%
same,"viability, T/C",[17],1.43%
same,"viability, T/C",[18],0.32%
same,"viability, T/C",[19],91.5%
same,"viability, T/C",[20],77.7%
same,"viability, T/C",[21],43.4%
same,"viability, T/C",[22],8.38%
same,"viability, T/C",[23],1.57%
same,"viability, T/C",[24],0.28%
same,"viability, T/C",[25],70.2%
same,"viability, T/C",[26],58.5%
same,"viability, T/C",[27],37.2%
same,"viability, T/C",[28],6.55%
same,"viability, T/C",[29],1.99%
same,"viability, T/C",[30],0.42%
